From patent publication US5304604A, “Hydroxamic acid collagenase inhibotors” (British Bio-technology Limited, priority 1988, dated 1994)
pIC50: −log10 of the molar value.

Assays:
collagenase = molecular target: T1, collagenase (Homo sapiens, UniProt P03956); assay: Collagenase Inhibition Activity (procedure of Cawston and Barrett); format: biochemical; details: for pIC50: acetylated 14C collagen, 37°, 16 hours, pH 7.5, read-out: IC50 (inhibitor concentration effecting 50% inhibition of the collagenase)
T1 sequence (P03956 100-469): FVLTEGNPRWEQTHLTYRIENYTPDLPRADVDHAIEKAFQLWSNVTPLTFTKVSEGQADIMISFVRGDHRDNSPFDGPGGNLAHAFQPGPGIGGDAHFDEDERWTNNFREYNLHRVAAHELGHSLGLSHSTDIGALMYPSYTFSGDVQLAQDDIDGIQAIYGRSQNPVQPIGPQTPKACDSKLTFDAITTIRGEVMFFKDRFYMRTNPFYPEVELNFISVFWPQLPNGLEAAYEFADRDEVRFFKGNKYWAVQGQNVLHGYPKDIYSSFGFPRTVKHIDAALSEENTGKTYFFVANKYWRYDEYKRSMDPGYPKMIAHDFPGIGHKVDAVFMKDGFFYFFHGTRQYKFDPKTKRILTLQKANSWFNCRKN

stromelysin = stromelysin (Homo sapiens, UniProt P08254); assay: Stromelysin Inhibition Activity (procedure of Cawston et al); format: biochemical; details: for protoglycanase inhibiting activity, in words: protoglycanase = stromelysin (b7)
Chain of stromelysin (P08254 100-477): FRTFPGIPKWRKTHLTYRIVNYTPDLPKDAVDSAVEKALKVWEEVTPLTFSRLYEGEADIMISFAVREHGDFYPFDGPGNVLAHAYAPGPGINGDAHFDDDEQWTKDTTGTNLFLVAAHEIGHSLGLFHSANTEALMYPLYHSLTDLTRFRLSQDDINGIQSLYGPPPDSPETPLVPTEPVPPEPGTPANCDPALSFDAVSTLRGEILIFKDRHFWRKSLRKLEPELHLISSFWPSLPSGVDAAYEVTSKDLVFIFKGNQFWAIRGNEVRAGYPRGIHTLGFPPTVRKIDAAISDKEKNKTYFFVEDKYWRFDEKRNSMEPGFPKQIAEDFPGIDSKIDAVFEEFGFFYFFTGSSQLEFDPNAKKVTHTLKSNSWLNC
Procedure: The potency of compounds of general formula I to act as inhibitors of collagenase (a metalloprotease involved in tissue degradation) was determined by the procedure of Cawston and Barrett, (Anal. Biochem., 99, 340-345, 1979) and their potency to act as inhibitors of stromelysin was determined using the procedure of Cawston et al (Biochem. J., 195, 159-165 1981), both of which techniques are to be described more fully in the examples and, to the extent that the law allows, are incorporated by reference herein.

Compound | collagenase-inhibiting activity, in words (collagenase) | pIC50 (collagenase) | protoglycanase inhibiting activity, in words (stromelysin) | pIC50 (stromelysin; 14C acetylated casein, 37° C., 16 hours, pH 7.5, read-out: IC50 (inhibitor concentration effecting 50% inhibition of the stromelysin))
CC(C)C[C@H](CC(=O)NO)C(=O)N[C@@H](Cc1ccccc1)C(=O)NCc1cccnc1 [Example 6, [4-(N-Hydroxyamino)-2R-isobutylsuccinyl]-L-phenylalanine-N-(3-aminomethylpyridine)amide] | good | 7.70 | good | 
CC(C)C[C@H](CC(=O)NO)C(=O)N[C@@H](Cc1ccccc1)C(=O)NCCN1CCCC1 [Example 3, [4-(N-Hydroxyamino)-2R-isobutylsuccinyl]-L-phenylalanine-N-[1-(2-aminoethyl)-pyrrolidine]amide] |  | 7.15 |  | 
CC(C)C[C@@H](C(=O)N[C@@H](Cc1ccccc1)C(=O)NCCN1CCOCC1)[C@H](C)C(=O)NO [Example 11, [4-(N-Hydroxyamino)-2R-isobutyl-3S-methylsuccinyl]-L-phenylalanine-N-[4-(2-aminoethyl)-morpholino]amide] | good | 7.82 | good | 7.30
